{
  "source": "patent US20230012368A1",
  "about": "(Hoffmann-La Roche Inc., priority 2018, published 2023)",
  "note": "Structures can show the parent of a compound that is named as a salt.",
  "data": [
    {"system": "Acinetobacter baumannii ATCC 17978", "experiment": "Antimicrobial susceptibility testing: 90% growth inhibitory concentration (IC90) determination", "assay_type": "cell-based", "details": "90% growth inhibitory concentration; Acinetobacter baumannii ATCC17978; Iso-Sensitest broth, OD 600 nm over 16h; read-out: ATCC17978 IC90", "procedure,_shortened": "(§1)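 Growth of the Acinetobacter baumannii strain was followed by optical density at 600 nm every 20 minutes for 16h at 35±2° C. Inoculum was ~5×10^(5) CFU/ml in Iso-Sensitest medium, with twofold compound dilutions (e.g. 50 to 0.097 μM final). The 90% inhibitory concentration was derived in log-phase growth.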", "units": {"IC90": "nM"}, "values": [
      {"smiles": "Cc1cc(Nc2nccn3c(-c4ccc(Cl)c(F)c4F)cnc23)ccc1C(=O)NC(C)CCN", "note": "(stereo not shown) [Example 318, N-(4-aminobutan-2-yl)-4-[[3-(4-chloro-2,3-difluorophenyl)imidazo[1,2-a]pyrazin-8-yl]amino]-2-methylbenzamide; hydrochloride]", "IC90": 2500},
      {"smiles": "COc1ccc(-c2cnc3c(Nc4ccc(C(=O)NCC5CCOCC5)c(Cl)c4)nccn23)c(F)c1F", "note": "[Example 40, 2-chloro-4-[[3-(2,3-difluoro-4-methoxy-phenyl)imidazo[1,2-a]pyrazin-8-yl]amino]-N-(tetrahydropyran-4-ylmethyl)benzamide; 2,2,2-trifluoroacetic acid]", "IC90": 180}
    ]},
    {"system": "Acinetobacter baumannii ATCC 17978", "experiment": "Antimicrobial susceptibility testing: 90% growth inhibitory concentration (IC90) determination", "assay_type": "cell-based", "details": "Acinetobacter baumannii, ATCC17978, 16 h, 90% growth inhibitory concentration; Acinetobacter baumannii ATCC17978; Iso-Sensitest broth, OD 600 nm over 16h; read-out: ATCC17978 IC90", "procedure,_shortened": "as §1", "units": {"IC90": "nM"}, "values": [
      {"smiles": "CCc1cc(Nc2nccn3c(-c4ccc(OC(F)F)c(F)c4F)cnc23)ccc1C(=O)NCCC(=O)NCCN(C)C", "note": "[Example 325, 4-[[3-[4-(difluoromethoxy)-2,3-difluorophenyl]imidazo[1,2-a]pyrazin-8-yl]amino]-N-[3-[2-(dimethylamino)ethylamino]-3-oxopropyl]-2-ethylbenzamide]", "IC90": 150},
      {"smiles": "CCc1cc(Nc2nccn3c(-c4ccc(OC)c(F)c4F)cnc23)ccc1C(=O)NCC1(O)CCNC1", "note": "(stereo not shown) [Example 528, 4-((3-(2,3-difluoro-4-methoxyphenyl)imidazo[1,2-a]pyrazin-8-yl)amino)-2-ethyl-N-((3-hydroxypyrrolidin-3-yl)methyl)benzamide hydrochloride]", "IC90": 250},
      {"smiles": "COc1ccc(-c2cnc3c(Nc4ccc(C(=O)NCC5CCNC5)c(C)c4)nccn23)c(F)c1F", "note": "(stereo not shown) [Example 57, 4-[[3-(2,3-difluoro-4-methoxy-phenyl)imidazo[1,2-a]pyrazin-8-yl]amino]-2-methyl-N-(pyrrolidin-3-ylmethyl)benzamide]", "IC90": 290},
      {"smiles": "CCc1cc(Nc2nccn3c(-c4ccc(Cl)c(F)c4F)cnc23)ccc1C(=O)NCCCN1CCC1", "note": "[Example 386, N-[3-(azetidin-1-yl)propyl]-4-[[3-(4-chloro-2,3-difluorophenyl)imidazo[1,2-a]pyrazin-8-yl]amino]-2-ethylbenzamide]", "IC90": 950},
      {"smiles": "CCc1cc(Nc2nccn3c(-c4ccc(OC(F)F)c(F)c4F)cnc23)ccc1C(=O)NCC1CCNC1", "note": "(stereo not shown) [Example 550, 4-[[3-[4-(difluoromethoxy)-2,3-difluorophenyl]imidazo[1,2-a]pyrazin-8-yl]amino]-2-ethyl-N-(pyrrolidin-3-ylmethyl)benzamide; formic acid]", "IC90": 150},
      {"smiles": "CCc1cc(Nc2nccn3c(-c4ccc(Cl)cc4Cl)cnc23)ccc1C(=O)NCCNC(=O)[C@@H](N)CCCNC(=N)N", "note": "[Example 346, N-[2-[[(2S)-2-amino-5-carbamimidamidopentanoyl]amino]ethyl]-4-[[3-(2,4-dichlorophenyl)imidazo[1,2-a]pyrazin-8-yl]amino]-2-ethylbenzamide;hydrochloride]", "IC90": 980},
      {"smiles": "CCc1cc(Nc2nccn3c(-c4ccc(OCC#N)c(F)c4F)cnc23)ccc1C(=O)NCCNC(=O)CN", "note": "[Example 136, N-[2-[(2-aminoacetyl)amino]ethyl]-4-[[3-[4-(cyanomethoxy)-2,3-difluoro-phenyl]imidazo[1,2-a]pyrazin-8-yl]amino]-2-ethyl-benzamide formate]", "IC90": 60},
      {"smiles": "CCc1cc(Nc2nccn3c(-c4ccc(OC)c(F)c4F)cnc23)ccc1C(=O)NC[C@@H](C)NC(=O)[C@@H](N)CCCNC(=N)N", "note": "[Example 122, N-[(2R)-2-[[(2S)-2-amino-5-guanidino-pentanoyl]amino]propyl]-4-[[3-(2,3-difluoro-4-methoxy-phenyl)imidazo[1,2-a]pyrazin-8-yl]amino]-2-ethyl-benzamide formate]", "IC90": 310},
      {"smiles": "CCc1cc(Nc2nccn3c(-c4ccc(OC(F)F)c(F)c4F)cnc23)ccc1C(=O)NCC1(O)CNC1", "note": "[Example 307, 4-[[3-[4-(difluoromethoxy)-2,3-difluorophenyl]imidazo[1,2-a]pyrazin-8-yl]amino]-2-ethyl-N-[(3-hydroxyazetidin-3-yl)methyl]benzamide;hydro-chloride]", "IC90": 620},
      {"smiles": "COc1ccc(-c2cnc3c(Nc4cc(F)c(C(=O)NCCCN)c(F)c4)nccn23)c(F)c1F", "note": "[Example 435, N-(3-aminopropyl)-4-((3-(2,3-difluoro-4-methoxyphenyl)imidazo[1,2-a]pyrazin-8-yl)amino)-2,6-difluorobenzamide]", "IC90": 730},
      {"smiles": "COc1ccc(-c2cnc3c(Nc4ccc(C(=O)N(C)CCOn5nnc6cccnc65)c(C)c4)nccn23)cc1F", "note": "[Example 305, 4-[[3-(3-fluoro-4-methoxyphenyl)imidazo[1,2-a]pyrazin-8-yl]amino]-N,2-dimethyl-N-[2-(triazolo[4,5-b]pyridin-3-yloxy)ethyl]benzamide]", "IC90": 510},
      {"smiles": "Cc1cc(Nc2nccn3c(-c4ccc(OC(F)F)cc4)cnc23)ccc1C(=O)NCC1(O)CCNCC1", "note": "[Example 261, 4-[[3-[4-(difluoromethoxy)phenyl]im-idazo[1,2-a]pyrazin-8-yl]amino]-N-[(4-hydroxypiperidin-4-yl)methyl]-2-methylbenzamide; hydrochlo-ride]", "IC90": 4900},
      {"smiles": "COC(=O)[C@H](CCCCNC(=O)c1ccc(Nc2nccn3c(-c4ccc(OC(F)F)cc4)cnc23)cc1C)NC(=O)OC(C)(C)C", "note": "[Example 245, methyl (2S)-6-[[4-[[3-[4-(difluoromethoxy)phenyl]im-idazo[1,2-a]pyrazin-8-yl]amino]-2-methylbenzoyl]amino]-2-[(2-methylpropan-2-yl)oxycarbonylamino]hexa-noate]", "IC90": 2200},
      {"smiles": "COc1ccc(-c2cnc3c(Nc4ccc(C(=O)N(C)CC5CCNCC5)c(Cl)c4)nccn23)cc1F", "note": "[Example 205, 2-chloro-4-[[3-(3-fluoro-4-methoxyphenyl)imidazo[1,2-a]pyrazin-8-yl]amino]-N-methyl-N-(piperidin-4-ylmethyl)benzamide;hydrochlo-ride]", "IC90": 530},
      {"smiles": "CCc1cc(Nc2nccn3c(-c4ccc(OC)c(F)c4F)cnc23)ccc1C(=O)NCC(=O)NCCN(C)C", "note": "[Example 434, 4-[[3-(2,3-difluoro-4-methoxy-phenyl)imidazo[1,2-a]pyrazin-8-yl]amino]-N-[2-[2-(dimethylamino)ethylamino]-2-oxo-ethyl]-2-ethyl-benzamide; formic acid]", "IC90": 250},
      {"smiles": "CCc1cc(Nc2nccn3c(-c4ccc(OC)c(F)c4F)cnc23)ccc1C(=O)NCCCC(=O)N1CCN[C@H](CO)C1", "note": "[Example 161, 4-[[3-(2,3-difluoro-4-methoxy-phenyl)imidazo[1,2-a]pyrazin-8-yl]amino]-2-ethyl-N-[4-[(3S)-3-(hydroxymethyl)piperazin-1-yl]-4-oxo-butyl]benzamide]", "IC90": 80},
      {"smiles": "COc1ccc(-c2cnc3c(Nc4ccc(C(=O)NCCCCCCCN)c(Cl)c4)nccn23)c(F)c1F", "note": "[Example 518, N-(7-aminoheptyl)-2-chloro-4-((3-(2,3-difluoro-4-methoxyphenyl)imidazo[1,2-a]pyrazin-8-yl)amino)benzamide hydrochloride]", "IC90": 171},
      {"smiles": "CCc1cc(Nc2nccn3c(-c4ccc(OC(F)F)c(F)c4F)cnc23)ccc1C(=O)NCCCN", "note": "[Example 276, N-(3-aminopropyl)-4-[[3-[4-(difluoromethoxy)-2,3-difluorophenyl]imidazo[1,2-a]pyrazin-8-yl]amino]-2-ethylbenzamide;hydrochloride]", "IC90": 480},
      {"smiles": "CCc1cc(Nc2nccn3c(-c4ccc(OC)c(F)c4F)cnc23)ccc1C(=O)NCC1CCN(C(=N)N)CC1", "note": "[Example 298, N-[(1-carbamimidoylpiperidin-4-yl)methyl]-4-[[3-(2,3-difluoro-4-methoxyphenyl)imidazo[1,2-a]pyrazin-8-yl]amino]-2-ethylbenzamide]", "IC90": 170},
      {"smiles": "Cc1cc(Nc2nccn3c(-c4ccc(OC(F)F)cc4)cnc23)ccc1C(=O)NCCCCN1CCOCC1", "note": "[Example 197, 4-[[3-[4-(difluoromethoxy)phenyl]im-idazo[1,2-a]pyrazin-8-yl]amino]-2-methyl-N-(4-morpholin-4-ylbutyl)benzamide]", "IC90": 400},
      {"smiles": "CNC(=O)c1ccc(Nc2nccn3c(-c4ccc(OC(F)F)cc4)cnc23)cc1COCCO", "note": "[Example 168, 4-[[3-[4-(difluoromethoxy)phenyl]imidazo[1,2-a]pyrazin-8-yl]amino]-2-(2-hydroxyethoxymethyl)-N-methyl-benzamide]", "IC90": 2000},
      {"smiles": "CCc1cc(Nc2nccn3c(-c4ccc(OCC#N)c(F)c4Cl)cnc23)ccc1C(=O)NCCNC(=O)[C@@H](N)CCCNC(=N)N", "note": "[Example 330, N-[2-[[(2S)-2-amino-5-carbamimidamidopentanoyl]amino]ethyl]-4-[[3-[2-chloro-4-(cyanomethoxy)-3-fluorophenyl]imidazo[1,2-a]pyrazin-8-yl]amino]-2-ethylbenzamide;formic acid]", "IC90": 110},
      {"smiles": "COc1ccc(-c2cnc3c(Nc4ccc(C(=O)NCCN5CCNCC5)cc4)nccn23)cc1Cl", "note": "[Example 30, 4-((3-(3-chloro-4-methoxyphenyl)imidazo [1,2-a]pyrazin-8-yl)amino)-N-(2-(piperazin-1-yl)ethyl)benzamide hydrochloride]", "IC90": 3700},
      {"smiles": "Cn1ccc(CNC(=O)c2ccc(Nc3nccn4c(-c5ccc(OCC#N)c(F)c5F)cnc34)cc2Cl)cc1=O", "note": "[Example 86, 2-chloro-4-[[3-[4-(cyanomethoxy)-2,3-difluoro-phenyl]imidazo[1,2-a]pyrazin-8-yl]amino]-N-[(1-methyl-2-oxo-4-pyridyl)methyl] benzamide]", "IC90": 140},
      {"smiles": "CCc1cc(Nc2nccn3c(-c4ccc(OC(F)F)c(F)c4F)cnc23)ccc1C(=O)NCCc1nnc(C)[nH]1", "note": "[Example 295, 4-[[3-[4-(difluoromethoxy)-2,3-difluorophenyl]imidazo[1,2-a]pyrazin-8-yl]amino]-2-ethyl-N-[2-(5-methyl-4H-1,2,4-triazol-3-yl)ethyl]benzamide]", "IC90": 140},
      {"smiles": "Cc1cc(Nc2nccn3c(-c4ccc(OC(F)F)cc4)cnc23)ccc1C(=O)N(C)CC(=O)N1CCOCC1", "note": "[Example 279, 4-[[3-[4-(difluoromethoxy)phenyl]im-idazo[1,2-a]pyrazin-8-yl]amino]-N,2-dimethyl-N-(2-morpholin-4-yl-2-oxoethyl)benzamide]", "IC90": 3400}
    ]}
  ]
}
